Results: patent publication US20140276107A1, “PHOTODYNAMIC DIAGNOSIS” (Photocure ASA, priority 2011, published 2014)

Legend:
[1] = test system: normal and Barrett's tissue of the esophagus; assay: Spectrofluorimetry (LIFS) of PpIX fluorescence intensity in the esophagus of patients suffering from Barrett's esophagus; type: in vivo, human; conditions: for porphyrin (PpIX) fluorescence in normal tissue compared to Barrett's tissue: ALA 20 mg/kg orally 4-5 hours before endoscopy (5 subjects), HAL 8 mM solution by local instillation 2 hours before endoscopy (3 subjects)
Description: Spectrofluorimetry (LIFS) measurements (fluorescence intensity of PpIX in the esophagus) were carried out on 8 patients suffering from Barrett's esophagus. The measurements were carried out after oral administration of 5-ALA (ALA) or local instillation of 5-ALA hexyl ester (HAL) and the fluorescence intensity of normal and Barrett's tissue was compared.
LIFS was carried out using the Karl Storz D-light system. Abnormal cells could be clearly delineated against normal tissue due to the porphyrin fluorescence resulting from an accumulation of the ALA or HAL in the abnormal tissue. For this purpose, blue light of a specific spectral composition was introduced into the body via an endoscopic light guide system. • Patient group 1: 5 subjects each received 20 mg/kg body weight ALA orally, 4-5 hours before endoscopy. • Patient group 2: 3 subjects each received a 8 mM solution of HAL in an aqueous buffer by local instillation (100 mg in 50 mL, i.e. 0.2%), 2 hours before endoscopy.

[2] = test system: dysplastic tissue in Barrett's esophagus; conditions: cited from earlier work

Compound: NCC(=O)CCC(=O)O [ALA, 5-aminolevulinic acid]
- porphyrin (PpIX) fluorescence in normal tissue compared to Barrett's tissue ([1]; FIG. 1): significantly higher in normal tissue compared to Barrett's tissue
- distinction of high-grade dysplastic from non-dysplastic epithelial tissue ([2]; Brand et al. 2002): can distinguish
- detection of high-grade intraepithelial neoplasia and adenocarcinoma ([2]; Stepinac et al. 2003): effective
- detection of low-grade neoplastic tissue ([2]; Stepinac et al. 2003): not accurate
- specificity for detection of dysplastic tissue ([2]; systemic application of 5-ALA at 20 mg/kg and 30 mg/kg, high rate of false positive fluorescence): poor

Compound: CCCCCCOC(=O)CCC(=O)CN [HAL, 5-ALA hexyl ester]
- porphyrin (PpIX) fluorescence in normal tissue compared to Barrett's tissue ([1]; FIG. 1): significantly higher in normal tissue compared to Barrett's tissue
- intensity of fluorescence in the normal epithelium, HAL versus ALA ([1]; FIG. 1, normal epithelium, HAL 8 mM local instillation vs ALA 20 mg/kg orally): lower
- fluorescence intensity of PpIX in the Barrett and normal mucosa ([1]; FIG. 2, one of the patients receiving HAL): stronger intensity for the normal mucosa
- intensity of fluorescence in the normal and Barrett epithelium, HAL compared to ALA ([1]; normal and Barrett epithelium, background fluorescence): lower intensity of fluorescence
